Source: publication PMC5519928, “Log D versus HPLC derived hydrophobicity: The development of predictive tools to aid in the rational design of bioactive peptoids” (Biopolymers, 2017)
In brackets after ≈: the same amount, converted by molar mass. Like-named read-outs stand apart in the source and are kept apart here. Non-standard residues stand in square brackets, D forms with d. Residues, ends and D or L forms follow the SMILES beside them. Gly(N-2-aminoethyl) = NCCNCC(=O)O; Nspe = C[C@H](NCC(=O)O)c1ccccc1; Nlys = NCCCCNCC(=O)O

How the values were obtained:
[1] = test system: L. mexicana promastigotes; test: Cytotoxicity assay with Leishmania mexicana M379 promastigotes (alamarBlue); format: cell-based; conditions: 1 h pre-incubation with compound, then 24 h incubation, alamarBlue 4 h, fluorescence Ex 560/Em 600 nm, triplicate, minimum of two separate occasions, ED50 = median effective dose
Protocol: Leishmania mexicana (M379) promastigote parasites were maintained at 26 °C in Schneider's Insect medium (Sigma-Aldrich) supplemented with heat-inactivated foetal bovine sera (FBS, 15%; Biosera Ltd). Cells were counted using a Neubauer Improved Haemocytometer. Promastigotes were transformed into axenic amastigotes by a pH and temperature shift as previously described.5 A culture of recently transformed (three days) promastigotes in the late log phase was transferred into Schneider's Insect medium supplemented with 20% heat-inactivated FBS (pH 5.5) at 5 x 10^5 parasites/mL. […] After additional 5–7 days, the parasites should be in the amastigote stage and be ready for cytotoxicity studies and infections.
Cytotoxicity analyses were performed in 96-well plates (Costar, Fisher Scientific) using alamarBlue (Invitrogen) for cell viability detection as previously described.6 Promastigote and amastigote L. mexicana were pre-incubated with the compounds in triplicate (5 mM stock solutions in DMSO; Amphotericin B was used as a positive control; untreated parasites with DMSO as a negative control) in 50 µL of the corresponding media at 4 x 106 mL-1 for 1 hour. […] Then, 10 µL alamarBlue solution (Invitrogen) was added to each well for an incubation of 4 hours prior to assessing cell viability using a fluorescent plate reader (Biotek; Ex 560 nm / Em 600 nm). […]

[2] = test system: E. coli; format: cell-based
Protocol: (§1) Bacterial cultures were prepared by streaking the bacterial strain from a 4°C- or frozen stock culture to single colonies onto agar plates (containing the appropriate antibiotic for strains carrying antibiotic resistance plasmids) with an inoculation loop, followed by overnight incubation at 37 °C.
(§2) Primary overnight (o/n) cultures were prepared by inoculating a single colony from a streak plate into 5 mL of LB broth in a screw-capped culture tube, that was placed on a tube rotator at 37 °C (or 30 °C for sensitive strains) for overnight incubation. Before the usage of stock cultures the strains genotype were checked. Primary stocks were stored at 4°C for up to 6 weeks and always replaced from fresh colonies.
(§3) Fresh cultures used for experiments contained 0.1-0.5 mL o/n culture diluted into 8 mL of fresh medium in a standard test tube. Placed in a shaking water bath or on a tube rotator the bacteria were grown at the required temperature to the required cell density. Frozen stock cultures used for long term storage that can remain viable for 10 years were prepared by mixing 2.5 mL fresh o/n culture with 1.5 mL sterile 80% glycerol in a 5 mL sterile blood tube and stored at -20 °C.
(§4) MIC values were attained according to the previously described protocol4 and were conducted in 96-well plates (Costar, Fisher Scientific). Using the pre-prepared cultures, an innoculum density of 0.07 at 650 nm was set by comparing the absorbance with 0.5 MacFarland standard (240 μM BaCl2 in 0.18 M H2SO4). The innoculum was then diluted down ten-fold with Iso-sensitest broth (Oxoid, ThermoScientific) before use. Peptoids were initially dissolved in DMSO (5 mM) and then diluted further with Iso-sensitest broth to achieve a concentration range of 4 – 200 µM using 1 : 2 serial dilutions. 50 μl of innoculum and 50 μL of peptoid solution were added to each test well (final concentration range of 2 – 100 µM). Positive control containing only innoculum and Iso-sensitest broth; negative control containing inoculum and serial dilutions of ampicillin (from 250 microgram/mL to 2 microgram per mL); DMSO control containing innoculum and serial dilutions of DMSO; and Iso-sensitest broth were used as a sterile control. […] Quantitative data was attained from absorbance values using a microplate reader.

[3] = test system: S. aureus; format: cell-based
Protocol: as §1, §2, §3, §4

[4] = Average hydrophobicity by analytical reverse-phase HPLC retention; format: physicochemical; conditions: for RP-HPLC Retention (% MeCN): Supplement table 4 (chemical and physical data for peptoid library), % MeCN at elution in RP-HPLC; for HPLC RT: Table 2 / main text, chromatographic, RP-HPLC C18 retention time as measure of average hydrophobicity, gradient 0-100% solvent B over 30 min, 220 nm, 1 mL/min, A = 0.05% TFA, 95% H2O, 5% MeCN, B = 0.03% TFA, 5% H2O, 95% MeCN, around pH 2.2
Protocol: (§5) To examine the average hydrophobicity of the peptoids, the retention time for from reverse‐phase HPLC was determined on a C18 column using acetonitrile and water, with 0.1% TFA (see Figure 3A). To find log D values, partitioning experiments were carried out, as illustrated by Figure 2. A peptoid solution (between 10 and 100 µM) in PBS was added to an equal volume of octanol and the system allowed to equilibrate under gentle agitation for ∼150 h (as 48 h was not found to be sufficient for the system to reach equilibrium). At this point it is assumed that the peptoid has partitioned between these two phases, such as to minimise its free energy.
Preparative RP‐HPLC was performed with a semi‐preparative Perkin Elmer Series 200 lc pump fitted with a 785A UV/Vis detector using a SB‐Analytical ODH‐S optimal column (250 mm × 10 mm, 5 µm); flow rate 2 mL min^−1; λ = 250 nm, typical linear gradient elution 0–50% of solvent B over 60 min (A = 0.1% TFA in 95% H2O and 5% MeCN, B = 0.1% TFA in 5% H2O and 95% MeCN). Analytical RP‐HPLC was performed with a Perkin Elmer Series 200 LC pump fitted with a Series 200 UV/Vis detector using a SB‐Analytical ODH‐S optimal column (100 mm × 1.6 mm, 3.5 µm); flow rate 1 mL min^−1; λ = 220 nm, linear gradient elution 0–100% of solvent B over 30 min (A = 0.05% TFA, 95% H2O, 5% MeCN, B = 0.03% TFA, 5% H2O, 95% MeCN).
Preparative RP-HPLC was performed with a semi-preparative Perkin Elmer Series 200 lc pump fitted with a 785A UV/Vis detector using a SB-Analytical ODH-S optimal column (250 × 10 mm, 5 µm); flow rate 2 ml min^−1; λ = 250 nm, typical linear gradient elution 0-50% of solvent B over 60 min (A = 0.1% TFA in 95% H2O and 5% MeCN, B = 0.1% TFA in 5% H2O and 95% MeCN). Analytical RP-HPLC was performed with a Perkin Elmer Series 200 LC pump fitted with a Series 200 UV/Vis detector using a SB-Analytical ODH-S optimal column (100 × 1.6 mm, 3.5 µm); flow rate 1 ml min^−1; λ = 220 nm, linear gradient elution 0-100% of solvent B over 30 min (A = 0.05% TFA, 95% H2O, 5% MeCN, B = 0.03% TFA, 5% H2O, 95% MeCN).
Table S3. Data from analytical RP-HPLC for representative compounds of this peptoid library. Analytical HPLC gradient: 0 – 100% solvent B over 30 min at 220 nm (where solvent A = 95% H2O, 5% MeCN, 0.05 % TFA; solvent B = 95% MeCN, 5% H2O, 0.03% TFA).

[5] = log D by partitioning experiment in octanol and PBS; format: physicochemical; conditions: pH 7.4
Protocol: as §5
A combination of UV spectrometry and dynamic light scattering were used to determine that no aggregation was taking place in either phase (see Supporting Information). The peptoid concentrations of both phases were then determined using UV–Vis spectroscopy and the logarithm of the ratio of […] (log D) was calculated (Figure 3B). […]
Partition experiments were carried out by putting 450 µL of octanol in contact with 450 µL of PBS, which contained between […] of peptoid. Each peptoid was measured in triplicate. […] The concentration of peptoid remaining in the PBS and the octanol was measured individually using the phenylalanine peak as before. […]

[6] = Iso-sensitest broth, 96-well, 2-100 µM 1:2 serial dilutions, 38 °C 16 h with shaking, absorbance, lowest concentration completely inhibiting growth, triplicate, minimum of two occasions

Row | Compound | ED50 L. mex prom. [1] [µM] | MIC E. coli [2, 6] [µM] | MIC S. aureus [3, 6] [µM] | RP-HPLC Retention (% MeCN) [4] [% MeCN] | HPLC RT [4] [min] | MIC E. coli ([2]; 16 h) [µM] | MIC S. aureus ([3]; 16 h) [µM] | log D [5]
1 | C[C@@H](c1ccccc1)N(CC(N)=O)C(=O)CN(C(=O)CN(CCCCN)C(=O)CN(C(=O)CN(C(=O)CN(CCCCN)C(=O)CN(C(=O)CN(C(=O)CN(CCCCN)C(=O)CN(C(=O)CN(C(=O)CNCCCCN)[C@@H](C)c1ccccc1)[C@@H](C)c1ccccc1)[C@@H](C)c1ccccc1)[C@@H](C)c1ccccc1)[C@@H](C)c1ccccc1)[C@@H](C)c1ccccc1)[C@@H](C)c1ccccc1 [Peptoid 4] (H-[Nlys][Nspe][Nspe][Nlys][Nspe][Nspe][Nlys][Nspe][Nspe][Nlys][Nspe][Nspe]-NH2) | 8 | 25 (≈ 45.5 µg/mL) | 2 (≈ 3.64 µg/mL) | 42 | 14.9 |  |  | 
2 | C[C@@H](c1ccccc1)N(CC(N)=O)C(=O)CN(C(=O)CN(CCN)C(=O)CN(C(=O)CN(C(=O)CN(CCN)C(=O)CN(C(=O)CN(C(=O)CN(CCN)C(=O)CN(C(=O)CN(C(=O)CNCCN)[C@@H](C)c1ccccc1)[C@@H](C)c1ccccc1)[C@@H](C)c1ccccc1)[C@@H](C)c1ccccc1)[C@@H](C)c1ccccc1)[C@@H](C)c1ccccc1)[C@@H](C)c1ccccc1 [Peptoid 10] (H-[Gly(N-2-aminoethyl)][Nspe][Nspe][Gly(N-2-aminoethyl)][Nspe][Nspe][Gly(N-2-aminoethyl)][Nspe][Nspe][Gly(N-2-aminoethyl)][Nspe][Nspe]-NH2) |  |  |  | 41 | 16.7 | >100 | 2 (≈ 3.41 µg/mL) | 
3 | C[C@@H](c1ccccc1)N(CC(N)=O)C(=O)CN(C(=O)CN(CCN)C(=O)CN(C(=O)CN(C(=O)CN(CCN)C(=O)CN(C(=O)CN(C(=O)CNCCN)[C@@H](C)c1ccccc1)[C@@H](C)c1ccccc1)[C@@H](C)c1ccccc1)[C@@H](C)c1ccccc1)[C@@H](C)c1ccccc1 [Peptoid 11] (H-[Gly(N-2-aminoethyl)][Nspe][Nspe][Gly(N-2-aminoethyl)][Nspe][Nspe][Gly(N-2-aminoethyl)][Nspe][Nspe]-NH2) |  |  |  | 39 |  |  |  | negative
